What was measured:
Test in all cases: relative viability (nuclei count vs DMSO), 5 days (fraction); higher = more cells survive
[1] = compound: O=C(C[C@H]1NCCC[C@@H]1O)Cn1cnc2cc(Br)c(Cl)cc2c1=O (racemic) [Halofuginone] + Nc1ncn([C@H]2C[C@H](O)[C@@H](CO)O2)c(=O)n1 [Decitabine] (partner 2 µM)
Outline: (§1)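 Lung cancer cell lines, seeded in 1536-well plates, were treated the following day by pin tool with a single drug or with five library-drug doses (not always all listed) in √10 steps on top of a fixed anchor-drug dose. Cells were fixed and nuclei stained in one step after 5 days, and nuclei were counted. Relative viability is the nuclei count for treated wells divided by that for vehicle wells, reported as medians of duplicate plates.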

[2] = compound: O=C(C[C@H]1NCCC[C@@H]1O)Cn1cnc2cc(Br)c(Cl)cc2c1=O (racemic) [Halofuginone] + CC(C)C[C@H](NC(=O)[C@H](Cc1ccccc1)NC(=O)c1cnccn1)B(O)O [Bortezomib] (partner 0.002 µM)
Outline: as §1

[3] = compound: O=C(C[C@H]1NCCC[C@@H]1O)Cn1cnc2cc(Br)c(Cl)cc2c1=O (racemic) [Halofuginone] + CC1(C)CCC(c2ccc(Cl)cc2)=C(CN2CCN(c3ccc(C(=O)NS(=O)(=O)c4ccc(N[C@H](CCN5CCOCC5)CSc5ccccc5)c(S(=O)(=O)C(F)(F)F)c4)cc3)CC2)C1 [Navitoclax] (partner 0.5 µM)
Outline: as §1

[4] = compound: COc1cc2c(Oc3ccc4[nH]c(C)cc4c3F)ncnc2cc1OCCCN1CCCC1 [Cediranib] + C[C@@H](Oc1cc(-c2cnn(C3CCNCC3)c2)cnc1N)c1c(Cl)ccc(F)c1Cl [Crizotinib] (partner 1 µM)
Outline: as §1

Cell Line | relative viability ([1]; first compound 0.001 µM) | relative viability ([1]; first compound 0.003162 µM) | relative viability ([1]; first compound 0.01 µM) | relative viability ([1]; first compound 0.03162 µM) | relative viability ([1]; first compound 0.1 µM) | relative viability ([2]; first compound 0.001 µM) | relative viability ([2]; first compound 0.003162 µM) | relative viability ([2]; first compound 0.01 µM) | relative viability ([2]; first compound 0.03162 µM) | relative viability ([2]; first compound 0.1 µM) | relative viability ([3]; first compound 0.001 µM) | relative viability ([3]; first compound 0.003162 µM) | relative viability ([3]; first compound 0.01 µM) | relative viability ([3]; first compound 0.03162 µM) | relative viability ([3]; first compound 0.1 µM) | relative viability ([4]; first compound 0.04 µM) | relative viability ([4]; first compound 0.1265 µM) | relative viability ([4]; first compound 0.4 µM) | relative viability ([4]; first compound 1.265 µM) | relative viability ([4]; first compound 4 µM)
H3255 | 0.593 | 0.682 | 0.567 | 0.628 | 0.517 | 0.906 | 0.664 | 0.616 | 0.767 | 0.651 | 0.541 | 0.481 | 0.548 | 0.495 | 0.553 | 0.945 | 0.699 | 0.825 | 0.925 | 0.861
HCC-78 | 0.688 | 0.678 | 0.667 | 0.69 | 0.714 | 0.653 | 0.42 | 0.445 | 0.543 | 0.369 | 0.75 | 0.758 | 0.725 | 0.817 | 0.435 | 0.362 | 0.417 | 0.301 | 0.376 | 0.284
EBC-1 |  |  |  |  |  | 0.507 | 0.616 | 0.458 | 0.325 | 0.135 | 0.535 | 0.35 | 0.274 | 0.244 | 0.109 | 0.17 | 0.213 | 0.21 | 0.201 | 0.172
NCI-H2405 | 0.74 | 0.781 | 0.767 | 0.722 | 0.632 | 1.07 | 0.948 | 0.968 | 0.943 | 0.904 | 0.986 | 0.855 | 0.878 | 0.784 | 0.542 | 0.849 | 0.82 | 0.792 | 0.823 | 0.825
A549 | 0.338 | 0.278 | 0.293 | 0.257 | 0.258 |  |  |  |  |  | 1.33 | 1.27 | 1.02 | 0.676 | 0.0879 | 0.805 | 0.768 | 0.679 | 0.773 | 0.605
NCI-H3122 | 0.438 | 0.442 | 0.381 | 0.413 | 0.405 | 1.05 | 1.06 | 1 | 0.954 | 1.04 | 0.994 | 1.02 | 0.966 | 1.01 | 1.05 | 0.259 | 0.297 | 0.277 | 0.256 | 0.275
NCI-H1563 |  |  |  |  |  | 0.708 | 0.885 | 0.686 | 0.585 | 0.515 |  |  |  |  |  | 0.919 | 0.866 | 0.854 | 0.833 | 0.894
HCC-44 | 0.967 | 0.992 | 0.953 | 0.973 | 0.902 | 0.926 | 0.848 | 0.794 | 0.802 | 0.575 | 0.949 | 1.02 | 0.968 | 1.02 | 0.568 | 0.803 |  | 0.774 | 0.825 | 0.935
PC-3 [JPC-3] | 0.77 | 0.832 | 0.861 | 0.923 | 0.781 | 0.852 | 0.875 | 0.736 | 0.799 | 0.873 | 0.8 | 0.792 | 0.805 | 0.768 | 0.73 | 1.05 | 1.04 | 1.01 | 1.02 | 0.857
